Data taken from patent US20250332173A1, “COMPOUNDS AND METHODS FOR MODULATING NUCLEIC ACID SPLICING” (REMIX THERAPEUTICS INC., priority 2021, published 2025).
Read-outs that look alike come from different tables or passages of the source.

What was measured:
Format in all cases: cell-based, human
SMN2 mRNA = test: RT-qPCR splicing assay, SMN2 canonical junction (CJ) mRNA; conditions: Homo sapiens; Table 5 panel; canonical junction qPCR; compound concentration having 50% response in CJ decrease; read-out: SMN2 IC50 (decrease in CJ mRNA levels)
Summary of the method: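 Cells are plated (A673 allowed 24 h to adhere), dosed with an 11-point 3-fold series topping at 10 uM final, and incubated 24 h at 37 °C. Lysis is followed by cDNA synthesis and qPCR of the CJ transcript, normalized to a housekeeping gene.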

MYB mRNA = test: RT-qPCR splicing assay, MYB canonical junction (CJ) and alternative junction (AJ) mRNA; conditions: Homo sapiens; for AC50: increase in MYB alternative junction (AJ) mRNA, read-out: MYB AJ AC50
Summary of the method: (§1)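 Following a 24-hour incubation of A673 or K562 cells with serially diluted compound (3-fold steps, highest final 10 uM), the lysates undergo cDNA synthesis plus qPCR. Canonical and alternative junctions are each quantified against PPIA, GAPDH or GUSB.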

HTT mRNA = test: RT-qPCR splicing assay, HTT canonical junction (CJ) and alternative junction (AJ) mRNA; conditions: Homo sapiens; for AC50: increase in HTT alternative junction (AJ) mRNA, read-out: HTT AJ AC50
Summary of the method: as §1

[1] = Table 5 panel, canonical junction qPCR, compound concentration having 50% response in CJ decrease, read-out: MYB IC50 (decrease in CJ mRNA levels)
[2] = decrease in MYB canonical junction (CJ) mRNA, RT-qPCR, read-out: MYB CJ IC50
[3] = decrease in HTT canonical junction (CJ) mRNA, RT-qPCR, read-out: HTT CJ IC50
[4] = Table 5 panel, canonical junction qPCR, compound concentration having 50% response in CJ decrease, read-out: HTT IC50 (decrease in CJ mRNA levels)

| IC50 (SMN2 mRNA) | IC50 (MYB mRNA; [1]) | IC50 (MYB mRNA; [2]) | IC50 (HTT mRNA; [3]) | IC50 (HTT mRNA; [4]) | Compound | AC50 (MYB mRNA; RT-qPCR) | AC50 (HTT mRNA; RT-qPCR) |
| --- | --- | --- | --- | --- | --- | --- | --- |
| < 100 nM | < 100 nM | 100 to 1000 nM | 1000 to 10000 nM | 1000 to 10000 nM | Cc1cn2cc(-c3cc(F)c4c(=O)n([C@@H]5CCNC5)ccc4c3)cc(F)c2n1 (single isomer, unassigned) [Compound 395] | < 100 nM | 1000 to 10000 nM |
| < 100 nM | < 100 nM | < 100 nM | 1000 to 10000 nM | 1000 to 10000 nM | Cc1cn2cc(-c3cc(F)c4c(=O)n([C@H]5CCNC5)ccc4c3)cc(F)c2n1 (single isomer, unassigned) [Compound 396] | < 100 nM | 1000 to 10000 nM |
| < 100 nM | 1000 to 10000 nM | 100 to 1000 nM | 1000 to 10000 nM | 1000 to 10000 nM | Cc1cn2cc(-c3ccc4c(=O)n([C@@H]5CCCNC5)ccc4c3)cc(F)c2n1 (single isomer, unassigned) [Compound 403] | 1000 to 10000 nM | 1000 to 10000 nM |
| < 100 nM | < 100 nM | < 100 nM | < 100 nM | < 100 nM | Cc1cn2nc(-c3cc(F)c4c(=O)n([C@@H]5CCNC6(CC6)C5)ccc4c3)cc(C)c2n1 (single isomer, unassigned) [Compound 425] | < 100 nM | < 100 nM |
| < 100 nM | < 100 nM | < 100 nM | < 100 nM | < 100 nM | Cc1cn2nc(-c3cc(F)c4c(=O)n([C@H]5CCNC6(CC6)C5)ccc4c3)cc(C)c2n1 (single isomer, unassigned) [Compound 426] | < 100 nM | < 100 nM |
| < 100 nM | 100 to 1000 nM | 100 to 1000 nM | < 100 nM | < 100 nM | Cc1cn2nc(-c3ccc4c(=O)n([C@@H]5CCNC6(CC6)C5)ncc4c3)cc(C)c2n1 (stereo in doubt) [Compound 368, 2-[(7R)-4-azaspiro[2.5]octan-7-yl]-6-{2,8-dimethylimidazo[1,2-b]pyridazin-6-yl}phthalazin-1-one] | 100 to 1000 nM | < 100 nM |
| < 100 nM | < 100 nM | 100 to 1000 nM | 1000 to 10000 nM | 1000 to 10000 nM | Cc1cn2nc(-c3cc(F)c4c(=O)n(C5CCNC5)ccc4c3)cc(C)c2n1 (stereo in doubt) [Compound 382, (R)-6-(2,8-dimethylimidazo[1,2-b]pyridazin-6-yl)-8-fluoro-2-(pyrrolidin-3-yl)isoquinolin-1(2H)-one] | < 100 nM | 1000 to 10000 nM |
| < 100 nM | < 100 nM | < 100 nM | 1000 to 10000 nM | 1000 to 10000 nM | Cc1cn2nc(-c3cc(F)c4c(=O)n(C5CCNC5)ccc4c3)cc(C)c2n1 (stereo in doubt) [Compound 392, (S)-6-(2,8-dimethylimidazo[1,2-b]pyridazin-6-yl)-8-fluoro-2-(pyrrolidin-3-yl)isoquinolin-1(2H)-one] | < 100 nM | 1000 to 10000 nM |
| < 100 nM | 100 to 1000 nM | < 100 nM | < 100 nM | < 100 nM | Cc1cn2nc(-c3cc(C)c4c(=O)n(C5CCNC6(CC6)C5)ccc4c3)cc(C)c2n1 (stereo in doubt) [Compound 397, (S)-6-(2,8-dimethylimidazo[1,2-b]pyridazin-6-yl)-8-methyl-2-(4-azaspiro[2.5]octan-7-yl)isoquinolin-1(2H)-one] | 100 to 1000 nM | < 100 nM |
| < 100 nM | < 100 nM | < 100 nM | < 100 nM | < 100 nM | Cc1cn2nc(-c3cc(C)c4c(=O)n(C5CCNC6(CC6)C5)ccc4c3)cc(C)c2n1 (stereo in doubt) [Compound 398, (R)-6-(2,8-dimethylimidazo[1,2-b]pyridazin-6-yl)-8-methyl-2-(4-azaspiro[2.5]octan-7-yl)isoquinolin-1(2H)-one] | < 100 nM | < 100 nM |
